Legend:
[1] = system: Ccr2; assay: Intrauterine LPS neuroinflammation model, fetal brain qRT-PCR of Ccr2; type: in vivo, CD1 mice
Experimental: (§1) Mice were randomly assigned to six groups: Group 1) 4 pups/PBS+normal saline (NS), Group 2) 4 pups/LPS+NS, Group 3) 4 pups/LPS+MgSO4, Group 4) 4 pups/LPS+BMZ, Group 5) 4 pups/LPS+MgSO4 and BMZ, and Group 6) 4 pups/LPS+TMPA. Except for the non-surgical control (Group 1), each group underwent intrauterine injection of either vehicle or LPS. Phosphate buffered saline (PBS) and normal saline (NS) were used for the control groups. […] Mice received 300 μl of normal saline prior to surgery as a precaution against dehydration. All surgical procedures were performed under anesthesia with isoflurane within a sterile environment using PPE and sterile surgical tools to prevent infection. E15.5 pup brains were compared 6 hours post LPS within the six treatment groups as described in Table 1:
(§2) Mice randomized to Groups 3-5 received a single subcutaneous (SQ) injection of 0.1 mg of MgSO4 and/or BMZ 30 minutes after intrauterine injection of LPS, per the Hallak protocol: 270 mg/kg SQ loading dose followed by 27 mg/kg SQ every 20 minutes for a four-hour duration. […]
(§3) A power analysis was conducted to determine the appropriate number of subjects. Using data, it was determined that a minimum number of pups per treatment group of […] was necessary to obtain statistical power at the 0.80 level.

[2] = system: Ikbkb; assay: Intrauterine LPS neuroinflammation model, fetal brain qRT-PCR of Ikbkb; type: in vivo, CD1 mice
Experimental: as §1, §2, §3

[3] = system: Nos2; assay: Intrauterine LPS neuroinflammation model, fetal brain qRT-PCR of Nos2; type: in vivo, CD1 mice
Experimental: as §1, §2, §3

[4] = system: Nur77 expression; assay: Intrauterine LPS preterm labor/neuroinflammation model, Nur77 expression in fetal brain (microarray, qRT-PCR); parameters: species or system CD1 mice; details: mouse, in vivo
Experimental: as §1
Mice randomized to Groups 3-5 received a single subcutaneous (SQ) injection of 0.1 mg of MgSO4 and/or BMZ 30 minutes after intrauterine injection of LPS, per the Hallak protocol: 270 mg/kg SQ loading dose followed by 27 mg/kg SQ every 20 minutes for a four-hour duration. Mice randomized to Group 6 received a single dose of 50 mg/kg TMPA (approximately 2 mg of TMPA in 80 μl dimethyl sulfoxide (DMSO)) 30 minutes post-operative, as described by Zhan et al..

[5] = system: cerebral palsy; details: meta-analysis [9]; cited from earlier work
[6] = E15.5, 6 hours post LPS, LPS+treatment vs LPS

SMILES	Ccr2 expression in embryonic brain ([1]; mouse, in vivo)	Ikbkb expression in embryonic brain ([2]; mouse, in vivo)	Nos2 expression in embryonic brain ([3]; mouse, in vivo)	Nur77 expression (quantitative reverse-transcriptase PCR validation) [4]	Nur77 expression in fetal brain tissue (microarray) [4]	women in preterm labor treated per single case of cerebral palsy prevented [5]	Ccr2 expression in embryonic brain [1, 6]	Ikbkb expression in embryonic brain [2, 6]	Nos2 expression in embryonic brain [3, 6]
O=S(=O)([O-])[O-].[Mg+2] [MgSO4, magnesium sulfate]	only significantly lower for Ikbkb	significantly lower	only significantly lower for Ikbkb	reduced	significantly reduced	46			
CCCCCCCC(=O)c1cc(OC)c(OC)c(OC)c1CC(=O)OCC [TMPA, ethyl 2-(2,3,4-trimethoxy-6-octanoylphenyl)acetate]							significantly lower vs. LPS	significantly lower vs. LPS	significantly lower vs. LPS

Reference: patent US10869851B1, “Targeting NUR77 for mitigating perinatal neuroinflammation” (The United States Government as represented by the …, priority 2017, dated 2020)
